{"source": "patent US4169096A", "about": "“Antibiotic compounds” (priority 1977, dated 1979)", "key": {"B. fragilis A20926": {"system": "B. fragilis A20926", "assay": "Localized infection with B. fragilis in mice", "type": "in vivo", "details": "for mean score: control 4.2; for sum of score: control 21; for infectivity level: control 100%"}, "C. perfringens A9635": {"system": "C. perfringens A9635", "assay": "animal or person", "type": "in vivo, mice", "details": "Clostridium perfringens, A9635, in Mus musculus, 120 h, read-out: PD50"}, "[1]": {"details": "subcutaneous or oral"}, "in vivo": {"assay": "in vivo", "details": "mouse"}}, "note": "Where two headings read alike, the source gives them in different places.", "data": [{"smiles": "Cc1ncc([N+](=O)[O-])n1CCO", "note": "[Flagyl]", "values": [{"measurement": "mean score", "setting": "B. fragilis A20926; oral, 6.3 × 5 mg/kg", "result": 3.4}, {"measurement": "sum of score", "setting": "B. fragilis A20926; oral, 6.3 × 5 mg/kg", "result": 17}, {"measurement": "infectivity level", "setting": "B. fragilis A20926; oral, 6.3 × 5 mg/kg", "result": 81.0, "unit": "%"}, {"measurement": "mean score", "setting": "B. fragilis A20926; oral, 25 × 5 mg/kg", "result": 2.6}, {"measurement": "sum of score", "setting": "B. fragilis A20926; oral, 25 × 5 mg/kg", "result": 13}, {"measurement": "infectivity level", "setting": "B. fragilis A20926; oral, 25 × 5 mg/kg", "result": 61.9, "unit": "%"}, {"measurement": "mean score", "setting": "B. fragilis A20926; oral, 100 × 5 mg/kg", "result": 1.6}, {"measurement": "sum of score", "setting": "B. fragilis A20926; oral, 100 × 5 mg/kg", "result": 8}, {"measurement": "infectivity level", "setting": "B. fragilis A20926; oral, 100 × 5 mg/kg", "result": 38.1, "unit": "%"}, {"measurement": "mean score", "setting": "B. fragilis A20926; oral, […] 5 mg/kg", "result": 4.0}, {"measurement": "sum of score", "setting": "B. fragilis A20926; oral, […] 5 mg/kg", "result": 20}, {"measurement": "infectivity level", "setting": "B. fragilis A20926; oral, […] 5 mg/kg", "result": 95.2, "unit": "%"}, {"measurement": "mean score", "setting": "B. fragilis A20926; subcutaneous, 0.8 × 5 mg/kg", "result": 4.0}, {"measurement": "sum of score", "setting": "B. fragilis A20926; subcutaneous, 0.8 × 5 mg/kg", "result": 20}, {"measurement": "infectivity level", "setting": "B. fragilis A20926; subcutaneous, 0.8 × 5 mg/kg", "result": 95.2, "unit": "%"}, {"measurement": "mean score", "setting": "B. fragilis A20926; subcutaneous, 3.1 × 5 mg/kg", "result": 3.4}, {"measurement": "sum of score", "setting": "B. fragilis A20926; subcutaneous, 3.1 × 5 mg/kg", "result": 17}, {"measurement": "infectivity level", "setting": "B. fragilis A20926; subcutaneous, 3.1 × 5 mg/kg", "result": 81.0, "unit": "%"}, {"measurement": "mean score", "setting": "B. fragilis A20926; subcutaneous, 50 × 5 mg/kg", "result": 2.0}, {"measurement": "sum of score", "setting": "B. fragilis A20926; subcutaneous, 50 × 5 mg/kg", "result": 10}, {"measurement": "infectivity level", "setting": "B. fragilis A20926; subcutaneous, 50 × 5 mg/kg", "result": 47.6, "unit": "%"}, {"measurement": "mean score", "setting": "B. fragilis A20926; subcutaneous, […] 5 mg/kg", "result": 2.4}, {"measurement": "sum of score", "setting": "B. fragilis A20926; subcutaneous, […] 5 mg/kg", "result": 12}, {"measurement": "infectivity level", "setting": "B. fragilis A20926; subcutaneous, […] 5 mg/kg", "result": 57.1, "unit": "%"}, {"measurement": "ED50", "setting": "C. perfringens A9635; po", "result": 60, "unit": "mg/kg"}, {"measurement": "ED50", "setting": "C. perfringens A9635; sc", "result": 31, "unit": "mg/kg"}, {"measurement": "absorption compared with Bu-2313B", "setting": "[1]", "result": "better absorptions than Bu-2313B"}, {"measurement": "concentration at 0.5 h", "setting": "in vivo; po, 25 mg/kg", "result": 8800, "unit": "ng/mL"}, {"measurement": "concentration at 1 h", "setting": "in vivo; po, 25 mg/kg", "result": 6700, "unit": "ng/mL"}, {"measurement": "concentration at 3 h", "setting": "in vivo; po, 25 mg/kg", "result": 6100, "unit": "ng/mL"}, {"measurement": "concentration at 0.5 h", "setting": "in vivo; po, 50 mg/kg", "result": 20000, "unit": "ng/mL"}, {"measurement": "concentration at 1 h", "setting": "in vivo; po, 50 mg/kg", "result": 15000, "unit": "ng/mL"}, {"measurement": "concentration at 3 h", "setting": "in vivo; po, 50 mg/kg", "result": 11000, "unit": "ng/mL"}, {"measurement": "concentration at 0.5 h", "setting": "in vivo; po, 100 mg/kg", "result": 56000, "unit": "ng/mL"}, {"measurement": "concentration at 1 h", "setting": "in vivo; po, 100 mg/kg", "result": 41000, "unit": "ng/mL"}, {"measurement": "concentration at 3 h", "setting": "in vivo; po, 100 mg/kg", "result": 24000, "unit": "ng/mL"}, {"measurement": "concentration at 5 h", "setting": "in vivo; po, 100 mg/kg", "result": 13000, "unit": "ng/mL"}, {"measurement": "concentration at 0.5 h", "setting": "in vivo; sc, 25 mg/kg", "result": 15000, "unit": "ng/mL"}, {"measurement": "concentration at 1 h", "setting": "in vivo; sc, 25 mg/kg", "result": 12000, "unit": "ng/mL"}, {"measurement": "concentration at 2 h", "setting": "in vivo; sc, 25 mg/kg", "result": 8300, "unit": "ng/mL"}, {"measurement": "concentration at 0.5 h", "setting": "in vivo; sc, 50 mg/kg", "result": 32000, "unit": "ng/mL"}, {"measurement": "concentration at 1 h", "setting": "in vivo; sc, 50 mg/kg", "result": 26000, "unit": "ng/mL"}, {"measurement": "concentration at 2 h", "setting": "in vivo; sc, 50 mg/kg", "result": 12000, "unit": "ng/mL"}, {"measurement": "concentration at 0.5 h", "setting": "in vivo; sc, 100 mg/kg", "result": 121000, "unit": "ng/mL"}, {"measurement": "concentration at 1 h", "setting": "in vivo; sc, 100 mg/kg", "result": 98000, "unit": "ng/mL"}, {"measurement": "concentration at 2 h", "setting": "in vivo; sc, 100 mg/kg", "result": 40000, "unit": "ng/mL"}]}]}
